In ChEMBL document CHEMBL5729210, “Benzodiazepine derivatives as RSV inhibitors” (2022):
Several values for one entry are separate records, joined by “and”; a condition that tells them apart may be missing. Identical values can stand only once.

Assay: RSV-A Assay: The description is Japanese.

First: O=C1Nc2ccccc2C(c2ccccc2)=NC1Nc1nnc(-c2ncc(N3CCOCC3)cc2F)o1 (stereo not drawn)
Second: O=C1Nc2ccccc2C(c2ccccc2)=NC1Nc1nnc(-c2ncc(N3CCOCC3)cc2Cl)o1 (stereo not drawn)
The EC50 of the first is lower: under 400 nM for the first, over 800 nM for the second.

`O=C1Nc2ccccc2C(c2ccccc2)=NC1Nc1nnc(CCC(F)(F)F)o1` (stereo not drawn) and `O=C1Nc2ccccc2C(c2ccccc2)=NC1Nc1nnc(CC(F)(F)F)o1` (stereo not drawn) cannot be ordered by EC50: over 800 nM for the first, over 800 nM for the second.

`O=C1Nc2ccccc2C(c2ccccc2)=NC1Nc1nnc(CCc2ccccc2)o1` (stereo not drawn) and `CC(C)(Cc1ccccc1)c1nnc(NC2N=C(c3ccccc3)c3ccccc3NC2=O)o1` (stereo not drawn) cannot be ordered by EC50: over 800 nM for the first, over 800 nM for the second.

`COC(=O)c1ncc(C#N)cc1N1CCOCC1` and `COC(=O)c1sc(Br)cc1N1CCOCC1` cannot be ordered by EC50: under 400 nM for the first, under 400 nM for the second.

`CC(C)c1nnc(NC2N=C(c3ccccc3)c3ccccc3NC2=O)o1` (stereo not drawn) and `CC(C)(O)c1nnc(NC2N=C(c3ccccc3)c3ccccc3NC2=O)o1` (stereo not drawn) cannot be ordered by EC50: over 800 nM for the first, over 800 nM for the second.

`CN1CCN(c2ncccc2-c2nnc(NC3N=C(c4ccccc4)c4ccccc4NC3=O)o2)CC1` (stereo not drawn) and `CN1CCN(c2ccccc2-c2nnc(NC3N=C(c4ccccc4)c4ccccc4NC3=O)o2)CC1` (stereo not drawn) cannot be ordered by EC50: over 800 nM for the first, over 800 nM for the second.

`O=C1Nc2ccccc2C(c2ccccc2)=N[C@@H]1Nc1nnc(-c2ncc(C3CC3)cc2N2CCOCC2)o1` and `O=C1Nc2ccccc2C(c2ccccc2)=N[C@@H]1Nc1nnc(-c2ncc(Br)cc2N2CCOCC2)o1` cannot be ordered by EC50: under 400 nM for the first, under 400 nM for the second.

Going from `Cn1c(N2CCOCC2)c(-c2nnc(N[C@H]3N=C(c4ccccc4)c4ccccc4NC3=O)o2)ccc1=O` to `Cn1ncc(-c2nnc(N[C@H]3N=C(c4ccccc4)c4ccccc4NC3=O)o2)c1N1CCOCC1`, the EC50 rises from under 400 nM to over 800 nM.

Going from `O=C1Nc2ccccc2C(c2ccccc2)=N[C@@H]1Nc1nnc(-c2oc3ccccc3c2N2CCOCC2)o1` to `O=C1Nc2ccccc2C(c2ccccc2)=NC1Nc1nnc(-c2cccc(F)c2N2CCOCC2)o1` (stereo not drawn), the EC50 rises from under 400 nM to over 800 nM. The first is the more potent here.

`CCCc1nnc(NC2N=C(c3ccccc3)c3ccccc3NC2=O)o1` (stereo not drawn) and `N#CCCc1nnc(NC2N=C(c3ccccc3)c3ccccc3NC2=O)o1` (stereo not drawn) cannot be ordered by EC50: over 800 nM for the first, over 800 nM for the second.

Going from `O=C1Nc2ccccc2C(c2ccccc2)=N[C@@H]1Nc1nnc(-c2cnc(N3CCOCC3)cn2)o1` to `O=C1Nc2ccccc2C(c2ccccc2)=NC1Nc1nnc(-c2nccnc2N2CCOCC2)o1` (stereo not drawn), the EC50 falls from over 800 nM to under 400 nM.

Going from `O=C(O)c1ccncc1N1CCCCC1` to `Cc1ccc(C(=O)O)c(N2CCOCC2)n1`, the EC50 falls from over 800 nM to under 400 nM.

`O=C1Nc2ccccc2C(c2ccccc2)=NC1Nc1nnc(-c2ccccc2-c2ccncc2)o1` (stereo not drawn) and `O=C1Nc2ccccc2C(c2ccccc2)=NC1Nc1nnc(-c2ccccc2NCc2ccccn2)o1` (stereo not drawn) cannot be ordered by EC50: over 800 nM for the first, over 800 nM for the second.

`Cn1cc(N2CCOCC2)c(-c2nnc(N[C@H]3N=C(c4ccccc4)c4ccccc4NC3=O)o2)n1` and `Cn1cc(-c2nnc(N[C@H]3N=C(c4ccccc4)c4ccccc4NC3=O)o2)c(N2CCOCC2)n1` cannot be ordered by EC50: under 400 nM for the first, under 400 nM for the second.

`COCc1nnc(NC2N=C(c3ccccc3)c3ccccc3NC2=O)o1` (stereo not drawn) and `CS(=O)(=O)Cc1nnc(NC2N=C(c3ccccc3)c3ccccc3NC2=O)o1` (stereo not drawn) cannot be ordered by EC50: over 800 nM for the first, over 800 nM for the second.

Compared with `NNC(=O)c1ccc(N2CCOCC2)cc1C(F)(F)F`, `CCOC(=O)c1ccc(F)cc1N1CCOCC1` is lower in EC50: over 800 nM for the first, under 400 nM for the second.

`O=C1Nc2ccccc2C(c2ccccc2)=N[C@@H]1Nc1nnc(-c2cnc(N3CC4CCC(C3)O4)nc2)o1` and `O=C1Nc2ccccc2C(c2ccccc2)=NC1Nc1nnc(-c2ccc(-n3ccnc3)nc2)o1` (stereo not drawn) cannot be ordered by EC50: over 800 nM for the first, over 800 nM for the second.

`CCc1nc(N2CCOCC2)c(-c2nnc(N[C@H]3N=C(c4ccccc4)c4ccccc4NC3=O)o2)cc1C#N` and `Cc1nc(N2CCOCC2)c(-c2nnc(N[C@H]3N=C(c4ccccc4)c4ccccc4NC3=O)o2)cc1C#N` cannot be ordered by EC50: under 400 nM for the first, under 400 nM for the second.

`CCOC(=O)c1cnc(C2CC2)nc1N1CCOCC1` and `COC(=O)c1ccc(Cl)nc1N1CCOCC1` cannot be ordered by EC50: under 400 nM for the first, under 400 nM for the second.

`CN1CCN(c2ccc(-c3nnc(NC4N=C(c5ccccc5)c5ccccc5NC4=O)o3)cc2)CC1` (stereo not drawn) and `O=C1Nc2ccccc2C(c2ccccc2)=NC1Nc1nnc(-c2ccc(-n3cnnc3)cc2)o1` (stereo not drawn) cannot be ordered by EC50: over 800 nM for the first, over 800 nM for the second.

`N#Cc1cnc(N2CCOCC2)c(-c2nnc(N[C@H]3N=C(c4ccccc4)c4ccccc4NC3=O)o2)c1` and `N#Cc1cnc(-c2nnc(NC3N=C(c4ccccc4)c4ccccc4NC3=O)o2)c(N2CCOCC2)c1` (stereo not drawn) cannot be ordered by EC50: under 400 nM for the first, under 400 nM for the second.

`O=C1Nc2ccccc2C(c2ccccc2)=NC1Nc1nnc(C2CCCC2)o1` (stereo not drawn) and `O=C1Nc2ccccc2C(c2ccccc2)=NC1Nc1nnc(C2CCC2)o1` (stereo not drawn) cannot be ordered by EC50: over 800 nM for the first, over 800 nM for the second.

`CC1(C)CC(c2nnc(NC3N=C(c4ccccc4)c4ccccc4NC3=O)o2)C1` (stereo not drawn) and `CC1(C)C[C@@H]1c1nnc(NC2N=C(c3ccccc3)c3ccccc3NC2=O)o1` (stereo partly drawn) cannot be ordered by EC50: over 800 nM for the first, over 800 nM for the second.

`O=C1Nc2ccccc2C(c2ccccc2)=NC1Nc1nnc(C2CCNC2)o1` (stereo not drawn) and `O=C1Nc2ccccc2C(c2ccccc2)=NC1Nc1nnc(C2CCOC2)o1` (stereo not drawn) cannot be ordered by EC50: over 800 nM for the first, over 800 nM for the second.

`O=C1Nc2ccccc2C(c2ccccc2)=NC1Nc1nnc([C@@H]2CCCN2C2CCNCC2)o1` (stereo partly drawn) and `CN1CCC(N2CCC[C@H]2c2nnc(NC3N=C(c4ccccc4)c4ccccc4NC3=O)o2)CC1` (stereo partly drawn) cannot be ordered by EC50: over 800 nM for the first, over 800 nM for the second.

`CN(C)CCOc1ccccc1-c1nnc(NC2N=C(c3ccccc3)c3ccccc3NC2=O)o1` (stereo not drawn) and `COCCOc1ccccc1-c1nnc(NC2N=C(c3ccccc3)c3ccccc3NC2=O)o1` (stereo not drawn) cannot be ordered by EC50: over 800 nM for the first, over 800 nM for the second.

`O=C1Nc2ccccc2C(c2ccccc2)=NC1Nc1nnc([C@@H]2CCCO2)o1` (stereo partly drawn) and `O=C1Nc2ccccc2C(c2ccccc2)=NC1Nc1nnc([C@H]2CCCO2)o1` (stereo partly drawn) cannot be ordered by EC50: over 800 nM for the first, over 800 nM for the second.

`O=C1Nc2ccccc2C(c2ccccc2)=NC1Nc1nnc(C2CC(F)(F)C2)o1` (stereo not drawn) and `O=C1Nc2ccccc2C(c2ccccc2)=NC1Nc1nnc(C2CC3(CCNCC3)C2)o1` (stereo not drawn) cannot be ordered by EC50: over 800 nM for the first, over 800 nM for the second.

Compared with `O=C1Nc2ccccc2C(c2ccccc2)=NC1Nc1nnc(-c2ncc(C(F)(F)F)cc2N2CCOCC2)o1` (stereo not drawn), `O=C1Nc2ccccc2C(c2ccccc2)=NC1Nc1nnc(-c2cc(C(F)(F)F)cnc2N2CCOCC2)o1` (stereo not drawn) is higher in EC50: under 400 nM for the first, over 800 nM for the second. The first is the more potent here.

`CC1(c2nnc(NC3N=C(c4ccccc4)c4ccccc4NC3=O)o2)CCNC1` (stereo not drawn) and `CC1(c2nnc(NC3N=C(c4ccccc4)c4ccccc4NC3=O)o2)CC1` (stereo not drawn) cannot be ordered by EC50: over 800 nM for the first, over 800 nM for the second.

`O=C1Nc2ccccc2C(c2ccccc2)=N[C@@H]1Nc1nnc(-c2cnc(-n3cncn3)nc2N2CCOCC2)o1` and `O=C1Nc2ccccc2C(c2ccccc2)=N[C@@H]1Nc1nnc(-c2cnc(-n3cccn3)nc2N2CCOCC2)o1` cannot be ordered by EC50: over 800 nM for the first, over 800 nM for the second.

`O=C1Nc2ccccc2C(c2ccccc2)=N[C@@H]1Nc1nnc(-c2ccc(C(F)(F)F)cc2N2CCOCC2)o1` and `N#Cc1ccc(-c2nnc(N[C@H]3N=C(c4ccccc4)c4ccccc4NC3=O)o2)c(N2CCOCC2)c1` cannot be ordered by EC50: under 400 nM for the first, under 400 nM for the second.

First: O=C1Nc2ccccc2C(c2ccccc2)=NC1Nc1nnc(-c2c(F)cc(N3CCOCC3)cc2F)o1 (stereo not drawn)
Second: O=C1Nc2ccccc2C(c2ccccc2)=N[C@@H]1Nc1nnc(-c2ccc(F)nc2N2CCOCC2)o1
The EC50 of the first is higher: over 800 nM for the first, under 400 nM for the second.

`O=C1Nc2ccccc2C(c2ccccc2)=NC1Nc1nnc(-c2ccc(-n3cncn3)nc2)o1` (stereo not drawn) and `O=C1Nc2ccccc2C(c2ccccc2)=NC1Nc1nnc(-c2ccc(-n3cccn3)nc2)o1` (stereo not drawn) cannot be ordered by EC50: over 800 nM for the first, over 800 nM for the second.

`CN1C(=O)C(Nc2nnc(-c3ccc(F)cc3)o2)N=C(c2ccccc2)c2ccccc21` (stereo not drawn) and `CC1(Nc2nnc(-c3ccc(F)cc3)o2)N=C(c2ccccc2)c2ccccc2NC1=O` (stereo not drawn) cannot be ordered by EC50: over 800 nM for the first, over 800 nM for the second.

Going from `O=C1Nc2ccccc2C(c2ccccc2)=NC1Nc1nnc(-c2cccc(-n3ccnc3)c2)o1` (stereo not drawn) to `O=C1Nc2ccccc2C(c2ccccc2)=NC1Nc1nnc(-c2ccc(-n3ccnc3)cc2)o1` (stereo not drawn), the EC50 falls from over 800 nM to under 400 nM. The second is the more potent here.

Compared with `CCOC(=O)c1nc2ccccn2c1N`, `CCOC(=O)c1ccc(C2CC2)nc1Cl` is lower in EC50: over 800 nM for the first, under 400 nM for the second.

`O=C1Nc2ccccc2C(c2ccccc2)=NC1Nc1nnc(C2(F)CC2)o1` (stereo not drawn) and `CC(C)(C)c1nnc(NC2N=C(c3ccccc3)c3ccccc3NC2=O)o1` (stereo not drawn) cannot be ordered by EC50: over 800 nM for the first, over 800 nM for the second.

`COc1cc(-c2nnc(NC3N=C(c4ccccc4)c4ccccc4NC3=O)o2)ccc1-n1cnc(C)c1` (stereo not drawn) and `COc1cnc(-c2nnc(NC3N=C(c4ccccc4)c4ccccc4NC3=O)o2)c(F)c1` (stereo not drawn) cannot be ordered by EC50: over 800 nM for the first, over 800 nM for the second.

`O=C(O)c1cnc(C(F)(F)F)nc1N1CCOCC1` and `COC(=O)c1cc(Br)c(C2CC2)nc1Cl` cannot be ordered by EC50: under 400 nM for the first, under 400 nM for the second.

Going from `N#Cc1ccc(-c2nnc(NC3N=C(c4ccccc4)c4ccccc4NC3=O)o2)s1` (stereo not drawn) to `Cc1cc(-n2cncn2)ccc1-c1nnc(NC2N=C(c3ccccc3)c3ccccc3NC2=O)o1` (stereo not drawn), the EC50 rises from under 400 nM to over 800 nM. The first is the more potent here.

`CN(c1nnc(-c2ccc(F)cc2)o1)C1N=C(c2ccccc2)c2ccccc2NC1=O` (stereo not drawn) and `Cn1nnc(-c2ccc(-c3nnc(NC4N=C(c5ccccc5)c5ccccc5NC4=O)o3)cc2)n1` (stereo not drawn) cannot be ordered by EC50: over 800 nM for the first, over 800 nM for the second.

`COCCOc1ccc(C(=O)OC)cc1` and `CCOC(=O)c1c(F)cc(F)cc1F` cannot be ordered by EC50: over 800 nM for the first, over 800 nM for the second.

`O=C1Nc2ccccc2C(c2ccccc2)=NC1Nc1nnc(-c2ccc(OC3CCOCC3)cc2)o1` (stereo not drawn) and `O=C1Nc2ccccc2C(c2ccccc2)=NC1Nc1nnc(-c2ccc(-n3ccc(C(F)(F)F)n3)cc2)o1` (stereo not drawn) cannot be ordered by EC50: over 800 nM for the first, over 800 nM for the second.

In the case of `O=C1Nc2ccccc2C(c2ccccc2)=NC1Nc1nnc(-c2ccncc2N2CCOCC2)o1` (stereo not drawn), the EC50 is reported as “in the range around 600 nM”.
For `O=C1Nc2ccccc2C(c2ccccc2)=NC1Nc1nnc(-c2ccc(N3CCCC3)cc2)o1` (stereo not drawn), the EC50 was “in the range around 600 nM”.
For `O=C1Nc2ccccc2C(c2ccccc2)=NC1Nc1nnc(-c2ccc(-n3cncn3)c(F)c2)o1` (stereo not drawn), the EC50 was “in the range around 600 nM”.
For `O=C1Nc2ccccc2C(c2ccccc2)=NC1Nc1nnc(-c2ccc(F)nc2N2CCOCC2)o1` (stereo not drawn), the EC50 was “in the range around 600 nM and < 400 nM”.
With `Cc1cc(-c2nnc(NC3N=C(c4ccccc4)c4ccccc4NC3=O)o2)ccc1-n1cncn1` (stereo not drawn) the EC50 was “in the range around 600 nM”.
With `O=C1Nc2ccccc2C(c2ccccc2)=N[C@@H]1Nc1nnc(-c2cnc(N3CCOCC3)nc2)o1` the EC50 was “in the range around 600 nM”.
With `NNC(=O)c1cc(F)cnc1N1CCOCC1` the EC50 was “in the range around 600 nM”.
For `Cn1ncc(N2CCOCC2)c1-c1nnc(N[C@H]2N=C(c3ccccc3)c3ccccc3NC2=O)o1`, the EC50 was “in the range around 600 nM”.
For `Cc1nc2ccc(-c3nnc(NC4N=C(c5ccccc5)c5ccccc5NC4=O)o3)cc2s1` (stereo not drawn), the EC50 was “in the range around 600 nM”.
For `Cc1nc(-c2nnc(NC3N=C(c4ccccc4)c4ccccc4NC3=O)o2)ccc1C#N` (stereo not drawn), the EC50 was “in the range around 600 nM”.
